Like-named read-outs stand apart in the source and are kept apart here.
How the values were obtained:
[1] = target: T1, LTD4 (contraction of isolated guinea pig trachea) (Cavia porcellus, UniProt Q2NNR5); experiment: Isolated guinea pig trachea assay, LTD4 antagonist activity; type: cell-based; details: read-out: pKB ± S.E. (converted)
T1 construct: from tissue; host or cells: isolated tracheal rings of male Hartley guinea pigs
T1 sequence (Q2NNR5 1-340): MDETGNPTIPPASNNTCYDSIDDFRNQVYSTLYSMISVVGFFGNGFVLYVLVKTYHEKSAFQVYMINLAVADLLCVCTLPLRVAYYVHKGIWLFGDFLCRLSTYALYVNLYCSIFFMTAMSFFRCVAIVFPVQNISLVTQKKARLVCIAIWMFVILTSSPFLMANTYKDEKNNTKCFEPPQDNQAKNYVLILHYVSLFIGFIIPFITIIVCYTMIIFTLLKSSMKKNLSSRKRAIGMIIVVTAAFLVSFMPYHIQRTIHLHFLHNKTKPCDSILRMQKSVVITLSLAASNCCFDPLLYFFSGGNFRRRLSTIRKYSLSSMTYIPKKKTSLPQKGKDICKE
Description: The compounds of the invention are tested in the isolated guinea pig trachea assay to assess their LTD4 antagonist activity. Male Hartley guinea pigs (350-400 g) are euthanized by a blow to the head, the neck is opened and the trachea removed. The trachea is maintained in aerated physiological salt solution, cleared of connective tissue and fat and cut into rings approximately 2 mm in width (usually containing two cartilaginous segments per ring). Two pieces of silk suture are then passed through the lumen of the tracheal ring and are tied around the cartilage, one on each side of the trachealis muscle. The tracheal ring is suspended between a glass hook and a force displacement transducer in a 10 ml organ bath for measurement of isometric tension. Tissues are maintained at 37° C. in aerated (95% O2 /5% CO2) physiological salt solution of the following composition: […] The tracheal rings are maintained at 2 g resting tension and equilibrated for 45 minutes (with frequent washing and readjustment of resting tension). The tracheal rings are first contracted by the addition of carbachol (3×10^-6 M), to determine tissue responsiveness and establish a reference contraction. On attainment of a stable level of contraction (approximately 30 minutes), the tissues are washed several times until baseline tension has been restored and then re-equilibrated for 30 minutes. The tissues are then incubated for 45 minutes with a test antagonist (either 1×10^-6 M or 1×10^-5 M) or 10 μl of an appropriate solvent control (control, non-treated). One tissue in each group serves as the control. Twenty minutes prior to the construction of the LTD4 cumulative concentration-response curve, L-[…]×10^-2 M final bath concentration) is added to inhibit bioconversion of LTD4 to LTE4. Only one LTD4 concentration-response curve is constructed in each tissue. All responses to LTD4 are calculated as a percentage of the reference contraction to carbachol. LTD4 antagonist activity is determined by comparison of the concentration response curves of LTD4 in the presence and absence of antagonist. Assessment of the relative rightward shift of the antagonist treated curve relative to the solvent (control) treated tissue is calculated as a concentration ratio (Eq. A) and used in subsequent calculations to derive an antagonist pKB value (Eqs B&C). In the event that the maximum response to LTD4 is depressed, the EC50 for that particular curve is determined, an "apparent" pKB reported, and the compound reported as "not-competitive."

[2] = test system: LTD4 induced bronchoconstriction; experiment: In vivo inhibition of LTD4 induced bronchospasm in guinea pigs (exogenously administered leukotrienes); parameters: species or system guinea pig; details: Cavia porcellus, 10 minutes before induction of bronchospasm (LTD4)
[3] = test system: acute inflammatory response (carrageenan paw edema); experiment: Rat carrageenan paw edema assay; type: in vivo; details: po; for inhibition in vivo at 50 mg/kg: 50 mg/kg peroral, 1 hour prior to carrageenan, edema at 3 hours
Description: The compounds of the invention are tested in the rat carrageenan paw edema assay to determine their ability to inhibit the acute inflammatory response. 140-180 gm male Sprague-Dawley rats, in groups of 6 animals, are injected subcutaneously in the right paw with 0.1 ml of 1% carrageenan at zero time. Mercury plethysmographic readings (ml) of the paw are made at zero time and 3 hours later. Test compounds are suspended or dissolved in 0.5% methylcellulose and given perorally 1 hour prior to carrageenan administration. The increase in paw volume (edema in ml.) produced by the carrageenan is measured. […] Unpaired Student's t-test is used to determine statistical significance.

[4] = test system: 5,12-diHETE synthesis by rat glycogen-elicited polymorphonuclear leukocytes; experiment: Inhibition of 5,12-diHETE synthesis by rat glycogen-elicited polymorphonuclear leukocytes; type: cell-based; details: Leukocyte, rat PMN
Description: This is especially true with respect to 5,12-diHETE, which is also denoted as LTB4 [see Ford-Hitchinson, J. Roy. Soc. Med., 74, 831 (1981)]. The assay of this Example measures the ability of the compounds of the invention to inhibit the synthesis of 5,12-diHETE by rat glycogen-elicited polymorphonuclear leukocytes.
(§1) Peritoneal PMN are obtained from female Wistar rats (150-250 g) that received an i.p. injection of 6% glycogen (10 ml). After 24 hours, rats are killed by CO2 asphyxiation and peritoneal cells are harvested by peritoneal lavage using Ca^++ and Mg^++ free Hanks' balanced salt solution (HBSS). The peritoneal exudate is centrifuged at 400 g for 10 minutes. After centrifugation, the lavaged fluid is removed and the cell pellet is resuspended in HBSS containing Ca^++ and Mg^++ and 10 mM L-cysteine at a concentration of 2×10^7 cells/ml. To 1 ml portions of cell suspension, test drugs or vehicle are added and incubated at 37° C. for 10 minutes. Following this preincubation, the calcium ionophore (10 μM), A23187, is added together with 0.5 μCi [^14 C] arachidonic acid and further incubated for 10 minutes. The reaction is stopped by the addition of ice cold water (3 ml) and acidification to pH 3.5. Lipoxygenase products are then extracted twice into diethyl ether. The pooled ether extracts are evaporated to dryness under nitrogen and the residue is redissolved in a small volume of methanol and spotted on aluminum backed pre-coated thin layer chromatographic plates. The samples are then co-chromatographed with authentic reference 5,12-diHETE in the solvent system-hexane:ether:acetic acid (50:50:3). After chromatography, the areas associated with 5,12-diHETE standard are identified by autoradiography, cut out and quantitated by liquid scintillation.
Results are expressed as the 50% Inhibitory concentration, or as percent inhibition at a given.

[5] = test system: TxB2 synthesis (cyclooxygenase); experiment: Inhibition of synthesis of cyclooxygenase oxidation product TxB2 (rat polymorphonuclear leukocytes); type: cell-based; details: Leukocyte, rat PMN
Description: as §1
The procedure of Example 17 is also employed for the determination of the ability of the compounds of the invention to inhibit the synthesis of the arachidonic acid cyclooxygenase oxidation product TxB2.
In this assay, the procedure of Example 17 is carried out as described. However, in order to determine cyclooxygenase activity, the samples are cochromatographed with authentic reference TxB2 in the solvent system ethyl acetate:formic acid (80:1) and the upper phase of ethyl acetate:isoctane:acetic acid:water (110:50:20:100). After chromatography, the areas associated with TxB2 standard are identified by autoradiography, cut out and quantitated by liquid scintillation techniques.
The results are calculated as in Example 12 and presented below: […]

[6] = antagonist concentration 1 × 10^-6 M
[7] = antagonist concentration 1 × 10^-5 M
[8] = A23187 10 μM, read-out: 50% Inhibitory Concentration (IC50)

| SMILES | inhibition in vivo at 25 mg/kg ([2]; intraduodenal, intraduodenally) [%] | inhibition in vivo at 50 mg/kg [3] [%] | also measured |
| --- | --- | --- | --- |
| CN(C)C(=O)CCSC(SCCC(=O)O)c1cccc(OCc2csc(-c3ccccc3)n2)c1 (stereo not shown) [Example 16, 3-[[[[3-(Dimethylamino)-3-oxopropyl]thio][3-[(2-phenyl-4-thiazolyl)methoxy]phenyl]methyl]thio]propanoic acid] | – | – | Kb [1, 6]: 72.4 nM |
| O=S(=O)(Nc1cccc(OCc2csc(Cc3ccccc3)n2)c1)C(F)(F)F [Example 9I, 1,1,1-Trifluoro-N-[3-[[2-(benzyl)-4-thiazolyl]methoxy]phenyl]methanesulfonamide] | 94 | 22 | inhibition in vivo at 25 mg/kg ([2]; po, intragastrically): 47% |
| O=S(=O)(Nc1cccc(OCc2csc(-c3ccc(C(F)(F)F)cc3)n2)c1)C(F)(F)F [Example 9E, 1,1,1-Trifluoro-N-[3-[[2-(4-trifluoromethylphenyl)-4-thiazolyl]methoxy]phenyl]-methanesulfonamide] | – | 66 | – |
| COc1ccc2c(c1)c(CC(=O)O)c(C)n2C(=O)c1ccc(Cl)cc1 [Indomethacin, reference compound] | – | – | ED50 ([3]; 3 h, read-out: Oral ED50 (95% C.L.)): 3.7 mg/kg |
| O=C(O)CCSC(SCCC(=O)O)c1cccc(OCc2csc(-c3ccccc3)n2)c1 [Example 15, 3,3'-[[3-[(2-Phenyl-4-thiazolyl)methoxy]phenyl]methylene]dithiobis[propanoic acid]] | – | – | Kb [1, 7]: 912 nM |
| Cc1ccc(S(=O)(=O)NC(=O)c2cccc(OCc3csc(-c4ccccc4)n3)c2)cc1 [Example 8, N-[(4-Methylphenyl)sulfonyl]-3-[(2-phenyl-4-thiazolyl)methoxy]benzamide] | 62 | 51 | inhibition at 10 µM ([4]; 10 μM): 55%; inhibition at 10 µM ([5]; 10 μM): 44% |
| CCN(CC)C(=O)N(C)CC(O)c1cccc(OCc2csc(-c3ccccc3)n2)c1 (stereo not shown) [Example 6, N,N-Diethyl-N'-[2-hydroxy-2-[3-(2-phenyl-4-thiazolylmethoxy)phenyl]ethyl]-N-methylurea] | 47 | 57 | – |
| O=S(=O)(Nc1cccc(OCc2csc(-c3ccc(Cl)cc3)n2)c1)C(F)(F)F [Example 9A, 1,1,1-Trifluoro-N-[3-[[2-(4-chlorophenyl)-4-thiazolyl]methoxy]phenyl]methanesulfonamide] | 54 | 60 | IC50 [4, 8]: 5200 nM; IC50 [5, 8]: 7100 nM |
| O=S(=O)(Nc1cccc(OCc2cccc(-c3ccccc3)n2)c1)C(F)(F)F [Example 7, 1,1,1-Trifluoro-N-[3-[(2-phenyl-6-pyridinyl)methoxy]phenyl]methanesulfonamide] | 68 | – | – |
| COc1ccc(-c2nc(COc3cccc(NS(=O)(=O)C(F)(F)F)c3)c(C)o2)cc1 [Example 1, 1,1,1-Trifluoro-N-[3-[[2-(4-methoxyphenyl)-5-methyl-4-oxazolyl]methoxy]phenyl]methanesulfonamide] | 24 | 34 | – |
| COC(=O)CCSC(SCCC(=O)N(C)C)c1cccc(OCc2csc(-c3ccccc3)n2)c1 (stereo not shown) [Example 13, 3-[[[[3-(Dimethylamino)-3-oxopropyl]thio][[(2-phenyl-4-thiazolyl)methoxy]phenyl]methyl]thio]propanoic acid methyl ester] | – | – | Kb [1, 6]: 44.7 nM |
| CN(C)C(=O)CCSC(SCCC(=O)N(C)C)c1cccc(OCc2csc(-c3ccccc3)n2)c1 [Example 14, 3,3'-[[[3-[(2-Phenyl-4-thiazolyl)methoxy]phenyl]methylene]dithio]bis[N,N-dimethylpropanamide]] | – | – | Kb [1, 6]: 324 nM |
| O=S(=O)(Nc1cccc(OCc2csc(-c3ccccc3F)n2)c1)C(F)(F)F [Example 9C, 1,1,1-Trifluoro-N-[3-[[2-(2-fluorophenyl)-4-thiazolyl]methoxy]phenyl]methanesulfonamide] | 73 | 53 | inhibition in vivo at 10 mg/kg ([2]; po, 10 mg/kg, intragastrically): 89% |
| COC(=O)CCSC(SCCC(=O)OC)c1cccc(OCc2csc(-c3ccccc3)n2)c1 [Example 12] | – | – | Kb [1, 7]: 724 nM |
| O=S(=O)(Nc1cccc(OCc2csc(-c3c(F)cccc3F)n2)c1)C(F)(F)F [Example 9D, 1,1,1-Trifluoro-N-[3-[[2-(2,6-difluorophenyl)-4-thiazolyl]methoxy]phenyl]methanesulfonamide] | 72 | 37 | – |
| O=S(=O)(Nc1cccc(OCc2csc(-c3cccc(C(F)(F)F)c3)n2)c1)C(F)(F)F [Example 9F, 1,1,1-Trifluoro-N-[3-[[2-(3-trifluoromethylphenyl)-4-thiazolyl]methoxy]phenyl]methanesulfonamide] | 50 | 23 | – |
| c1ccc(-c2nc(COc3cccc(Cc4nnn[nH]4)c3)cs2)cc1 [Example 5, 5-[[3-(2-Phenyl-4-thiazolylmethoxy)phenyl]methyl]-1H-tetrazole] | 69 | – | – |
| O=S(=O)(Nc1ccccc1OCc1csc(-c2ccccc2)n1)C(F)(F)F [Example 4, 1,1,1-Trifluoro-N-[2-[(2-phenyl-4-thiazolyl)methoxy]phenyl]methanesulfonamide] | 10 | – | – |
| Cc1oc(-c2ccccc2)nc1COc1cccc(NS(=O)(=O)C(F)(F)F)c1 [Example 2, 1,1,1-Trifluoro-N-[3-[(5-methyl-2-phenyl-4-oxazolyl)methoxy]phenyl]methanesulfonamide] | 56 | 18 | – |

Reference: patent US5103014A, “Certain 3,3'-[[[(2-phenyl-4-thiazolyl)methoxy]phenyl]methylene]dithiobis-propano ic acid derivatives” (American Home Products Corporation, priority 1990, dated 1992)
